The record followed here is patent US20070280938A1, “Peptides Derived from Natural Cytotoxicity Receptors and Methods of Use Thereof” (YISSUM RESEARCH AND DEVELOPMENT COMPANY OF THE HEBREW …, priority 2003, published 2007).

Entries after “also recorded” stand apart in the source; their conditions may differ.

Assay [1] has as its target T1, NKp30-Ig (Homo sapiens, UniProt O14931).
T1 construct: made in house
Nature of the assay: Inhibition of NKp30-Ig binding to tumor cells by premixed saccharides (flow cytometry). Conditions: cell line not specified. As for the experimental part:
(§1) Cells were incubated with the various fusion-Igs for 2 h at 4° C., washed and stained with FITC-conjugated-F(ab′)2-Goat-anti-human-IgG-Fcy (109-096-098, Jackson ImmunoResearch, West Grove, Pa.). Staining and washing buffer consisted of 0.5% (w/v) BSA and 0.05% sodium azide in PBS. Staining of CHO and mutant CHO cells was carried out with 2% FCS instead of bovine serum albumin (BSA) in the different buffers. Propidium iodide (PI) was added prior to reading for exclusion of dead cells. Flow cytometry was performed using a FACSCalibur flow cytometer (Becton Dickinson, Mountain View, Calif.). Data files were acquired and analyzed using BD CELLQuest™ 3.3 software.
(§2) For most binding inhibition experiments, 20 μg of fusion-Ig were premixed with the GAG and added to cells for staining as above. In all experiments, each sample was stained twice in different wells. When results are presented as MFI (median fluorescence intensity), average MFI∓SD of the duplicate staining is shown to reveal consistency of staining procedure. Human IgG1 (hIgG1 kappa, PHP010) was purchased from Serotec, Oxford, UK. Staining with the anti-heparin/heparan sulfate antibody HS4E4 was previously described (35).
(In flow cytometry, cells or beads pass a laser one at a time.)

For assay [2], the target named is T2, NKp46D2-Ig (Homo sapiens, UniProt O76036).
T2 construct: residues 101-235 (D2) of the mature NKp46 protein were PCR amplified; CD5 leader peptide (with added Met start codon) (N); made in house
Nature of the assay: Inhibition of NKp46D2-Ig binding to tumor cells by premixed saccharides (flow cytometry). The note with it: for Inhibition of binding of NKp46D2-Ig to tumor cells: cell line not specified; for Inhibition of binding of NKp46D2-Ig: HeLa and PC-3, FIGS. 2B, 2C. As for the experimental part:
as §1, §2

In a further assay the target is T3, LIR1-Ig (Homo sapiens, UniProt Q8NHL6).
T3 construct: made in house
The assay is described as follows: Effect of premixed saccharides on LIR1-Ig binding to HeLa cells (flow cytometry). Conditions: Glyc-PAA mixed with Ig-fusion protein, FIG. 1A. The method, then:
as §1, §2

In assay [3] the test system is HeLa cells. The assay is described as follows: Lysis of HeLa cells by primary NK lines (cytotoxicity assay). The note with it: FIG. 6A. It counts as cell-based, human. As for the experimental part:
The cytotoxic activity of NK lines against the various targets was assessed in 5-hr 35S-release assays and in 4-hr Eu release time-resolved fluorescence assays, as previously described (20). In experiments where carbohydrates were included, NK cells were first mixed with the carbohydrates and then added to target cells. […] Each point represents the average of duplicate/triplicate values.
To test the role of NKp46 and NKp30 recognition of carbohydrates in NK lysis, the lysis of HeLa cells by NKs in the presence of Glyc-PAA was studied.

Assay [4] deals with T4, NKp30-Ig (Homo sapiens, UniProt O14931, P25L).
T4 construct: made in house
The assay is described as follows: Inhibition of NKp30-Ig binding to tumor cells by premixed saccharides (flow cytometry). The method, then: as §1, §2

Assay [5] concerns NKp46D2-Ig. Nature of the assay: Treatment of tumor cells (GAG-degrading enzymes, glycosylation or GPI-anchor blockers) then staining with NKp46D2-Ig. It counts as cell-based, human. The method, then:
as §1
(§3) Tumor cells (10^6) were washed twice in PBS, resuspended in 1ml reaction buffer alone (mock) or reaction buffer containing one of the following GAG-degrading enzymes (Sigma): keratanase (0.94 u/ml, K-2876), heparin lyase I (1.56 u/ml, H-2519) and heparin lyase III (1.25 u/ml, H-8891). Reaction buffer consisted of 1% (w/v) BSA, 1 μg/ml leupeptin and 10 u/ml aprotinin in PBS. Cells were incubated with enzyme for 60 min at 37° C., washed two times with PBS and stained with fusion-Igs as above.
(§4) The involvement of cell membrane-associated GAGs in the binding of NKp46D2-Ig and NKp30-Ig to their cellular ligands was examined. […]

The subject of assay [6] is NKp30-Ig. Nature of the assay: Treatment of tumor cells (GAG-degrading enzymes, glycosylation or GPI-anchor blockers) then staining with NKp30-Ig. Type of assay: cell-based, human. As for the experimental part: as §1, §3, §4
The test system of assay [7] is HeLa cells. Nature of the assay: Staining of HeLa cells with fusion-Igs (flow cytometry). It counts as binding, human. The method, then: as §1
The test system of assay [8] is mutant CHO cells lacking HSPG. The assay is described as follows: Binding to mutant CHO cells lacking HSPG. Conditions: as compared to wt CHO cells; FIG. 7A. As for the experimental part:
as §1
To further test the role of NKp46 and NKp30 recognition of carbohydrates in NK lysis, the lysis of CHO mutants lacking HSPG was examined. […] Thus, reduction in binding of NKp46-D2-Ig and NKp30-Ig to tumor cells lacking HSPG is correlated with reduced lysis of these cells by NK cells.

For another assay, the system named is EB-SP. The assay is described as follows: Staining of EB-SP cells expressing cell-surface heparanase with fusion-Igs. It counts as binding, murine. Conditions: as compared to parental EB or EB-mock transfected. As for the experimental part:
as §1
The EB T lymphoma cell line and EB-SP cells that express a functional heparanase on the cell surface (16) were stained with NKp46D2-Ig. […] An alternative interpretation is that the binding is to a cell-surface molecule associated with heparan sulfate. […] Membrane-associated heparan sulfate proteoglycans (HSPGs) can be divided into two families: glypicans, which are attached to the plasma membrane via glycosylphosphatidylinositol (GPI) anchors, and syndecans, which are transmembrane proteins (23). The involvement of GPI-anchored proteins in the binding of NKp30-Ig and NKp46D2-Ig to tumor cells was examined. Treatment of cells with D-mannosamine (white bars) inhibits GPI-anchor formation.

The next assay relates to IV-infected cells. Nature of the assay: Binding of wild type and mutated NKp46D2 fusion proteins to IV-infected cells. Conditions: FIG. 10. As for the experimental part: as §1
Based on the observations described above, certain site-directed mutations were made in NKp46D2 (Lys 157, Arg 160, His 163 and Arg 166; 4 point mutations) or (Lys 157, Arg 160, His 163, Arg 166, and Lys 170; 5 point mutations) into hydrophilic, neutral, amino acids with residues of similar size and to compare the ability of the mutant and the wild type receptors to bind heparin/heparan sulfate. Two constructs were prepared: Q4 (K157Q, R160Q, H163Q, and R166Q) and Q4T1 (K157Q, R160Q, H163Q, R166Q, and K170T). The mutated referred to herein as SEQ ID NO:29 SEQ ID NO:30.. Corresponding fusion proteins were prepared (NKp46D2-Q4-Ig and NKp46D2-Q4T1-Ig) and compared to NKp46D2-Ig.

Setting [9] is: Glyc-PAA mixed with Ig-fusion protein, HeLa cells, FIG. 1A.
Setting [10] is: Glyc-PAA premix, inconsistent inhibition phenotype.
[11] abbreviates: HeLa cells pretreated with 40mM D-mannosamine overnight, FIG. 4D.
[12] abbreviates: tumor cells treated before staining.

T1 sequence (O14931 with tags, fused parts or gaps P25L): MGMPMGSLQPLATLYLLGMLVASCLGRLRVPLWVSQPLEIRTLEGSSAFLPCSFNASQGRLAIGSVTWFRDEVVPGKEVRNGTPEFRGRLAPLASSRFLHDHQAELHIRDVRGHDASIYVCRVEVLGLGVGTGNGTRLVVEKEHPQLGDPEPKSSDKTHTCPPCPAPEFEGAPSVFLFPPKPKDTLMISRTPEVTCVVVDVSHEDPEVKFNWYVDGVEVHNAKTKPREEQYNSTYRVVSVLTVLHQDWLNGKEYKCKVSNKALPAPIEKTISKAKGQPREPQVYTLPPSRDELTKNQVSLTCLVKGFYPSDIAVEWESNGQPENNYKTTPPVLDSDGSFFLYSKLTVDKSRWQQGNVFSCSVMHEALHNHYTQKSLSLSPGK
T2 sequence (O76036 with tags, fused parts or gaps isoform O76036-6): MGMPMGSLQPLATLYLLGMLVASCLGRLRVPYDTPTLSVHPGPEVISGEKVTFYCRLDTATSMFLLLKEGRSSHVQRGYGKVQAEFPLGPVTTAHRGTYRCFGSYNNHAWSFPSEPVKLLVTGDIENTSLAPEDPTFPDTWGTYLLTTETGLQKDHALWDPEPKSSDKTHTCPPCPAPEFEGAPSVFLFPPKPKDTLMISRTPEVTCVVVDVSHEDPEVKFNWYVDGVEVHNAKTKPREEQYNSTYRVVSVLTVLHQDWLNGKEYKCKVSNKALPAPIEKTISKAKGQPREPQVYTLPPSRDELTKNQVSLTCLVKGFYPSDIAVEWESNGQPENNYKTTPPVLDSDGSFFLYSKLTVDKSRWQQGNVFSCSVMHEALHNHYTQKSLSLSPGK
T4 sequence (O14931 with tags, fused parts or gaps P25L): as the sequence (O14931 with tags, fused parts or gaps P25L) above
T3 sequence (Q8NHL6 with tags, fused parts or gaps limits assumed): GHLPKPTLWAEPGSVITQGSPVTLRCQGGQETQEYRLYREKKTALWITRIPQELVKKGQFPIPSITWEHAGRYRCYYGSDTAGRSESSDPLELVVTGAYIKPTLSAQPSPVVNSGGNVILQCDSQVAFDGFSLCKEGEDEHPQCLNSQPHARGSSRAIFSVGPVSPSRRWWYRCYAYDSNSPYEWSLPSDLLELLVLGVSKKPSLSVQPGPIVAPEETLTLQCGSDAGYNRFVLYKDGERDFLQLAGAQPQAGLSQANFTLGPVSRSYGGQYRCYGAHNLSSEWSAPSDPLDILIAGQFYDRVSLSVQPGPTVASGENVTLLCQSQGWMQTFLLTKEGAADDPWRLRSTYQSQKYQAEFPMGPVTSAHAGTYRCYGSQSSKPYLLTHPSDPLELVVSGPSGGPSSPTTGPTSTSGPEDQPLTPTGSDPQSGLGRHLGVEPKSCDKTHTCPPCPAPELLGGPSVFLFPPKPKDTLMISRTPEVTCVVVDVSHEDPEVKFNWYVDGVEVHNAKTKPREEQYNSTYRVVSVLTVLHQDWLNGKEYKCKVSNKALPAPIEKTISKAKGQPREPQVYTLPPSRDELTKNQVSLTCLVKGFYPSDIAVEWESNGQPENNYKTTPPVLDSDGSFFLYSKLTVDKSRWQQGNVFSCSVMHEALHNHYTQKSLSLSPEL

In the case of 3′-O-sulfo-LacNAc, the “Inhibition of binding of NKp30-Ig to tumor cells” value on NKp30-Ig [1] was “did not inhibit binding”. The “Inhibition of binding of NKp46D2-Ig to tumor cells” value at NKp46D2-Ig [2] was “did not inhibit binding”.
In the case of 4 ′, 6′-di-O-sulfo-LacNAc, the “Inhibition of binding of NKp30-Ig to tumor cells” value at NKp30-Ig [1] was “did not inhibit binding”. In addition, the “Inhibition of binding of NKp46D2-Ig to tumor cells” value on NKp46D2-Ig [2] is given as “did not inhibit binding”.
For 6-O-sulfo-LacNAc-PAA, the “Inhibition of binding of LIR1-Ig to HeLa cells” value at LIR1-Ig is “not the positive binding of LIR1-Ig”. The “Reduction of lysis of HeLa cells by NK” value in the assay with HeLa cells [3] (0.9 mM) is recorded as “significant reduction of lysis”; in the assay on HeLa cells [3] (agent present during lysis assay, Glyc-PAA 0.225 to 0.9 mM, E:T 50:1, 4 h), “two fold”. The “Inhibition of binding of NKp30-Ig to HeLa cells” value on NKp30-Ig [4] (setting [9]) is “inhibited”. The “Inhibition of binding of NKp46D2-Ig to HeLa cells” value on NKp46D2-Ig [2] (setting [9]) is “inhibited binding”. The “Effect on binding of the fusion proteins after pre-incubation of the cells” value on NKp46D2-Ig [2] (cells pre-incubated with the saccharide, followed by wash and application of the fusion proteins) is given as “did not affect the binding”.
For the molecule 6′-O-sulfo-LacNAc, the “reduction in binding of NKp30-Ig” value at NKp30-Ig [4] (setting [10]) is “up to 25%”. The “reduction in binding of NKp46D2-Ig” value at NKp46D2-Ig [2] (setting [10]) was “up to 25%”.
For the molecule `N[C@@H]1C(O)O[C@H](CO)[C@@H](O)[C@@H]1O` (stereo partly drawn) [D-mannosamine], the “Reduction of binding of NKp46D2-Ig” value in the assay on NKp46D2-Ig [5] (setting [11]) was 4 fold. Besides, the “Reduction of binding of NKp30-Ig” value in the assay on NKp30-Ig [6] (setting [11]) was 2 fold.
As to `CC(=O)N[C@H]1[C@@H](OCc2ccccc2)O[C@H](CO)[C@H](O)[C@@H]1O` [abenzyl-GalNAc], in the assay with NKp46D2-Ig [5] (setting [12]), the “Effect of cell treatment on binding of NKp46D2-Ig” value is given as “significantly reduced the binding”. In the assay on NKp30-Ig [6] (setting [12]), the “Effect of cell treatment on binding of NKp30-Ig” value was “significantly reduced the binding”.
As for N-desulfated heparin, the “Inhibition of NKp46D2-Ig binding by modified heparins” value at NKp46D2-Ig [2] (heparins modified in sulfation or acetylation, HeLa cells, FIG. 2D) was “potent inhibitor”.
As to heparan sulfate, on NKp30-Ig [1], the “Inhibition of binding of NKp30-Ig to tumor cells” value is “directly inhibits the binding; also recorded: potent inhibitors”. Further, the “Inhibition of binding of NKp46D2-Ig” value on NKp46D2-Ig [2] (0.1 μg/ml) is reported as “inhibit binding”. Moreover, the “Inhibition of binding of NKp46D2-Ig to tumor cells” value on NKp46D2-Ig [2] is listed as “directly inhibits the binding; also recorded: potent inhibitors”.
Consider hyaluronic acid, for which, at NKp46D2-Ig [2] (incremental concentrations up to 10 μg/ml), the “Inhibition of binding of NKp46D2-Ig” value was “did not inhibit binding”.

B1: NKp30-Ig: protein conjugate comprising CD5 leader sequence and NKp30 D domain fused to Fc domain (protein)
chain: MAWRALHPLLLLLLLFPGSQAQSKAQVLQSVAGQTLTVRCQYPPTGSLYEKKGWCKEASALVCIRLVTSSKPRTMAWTSRFTIWDDPDAGFFTVTMTDLREEDSGHYWCRIYRPSDNSVSKSVRFYLVVSPASASTQTPWTPRDLVSSQTQTQSCVPPTAGARQAPESPSTIPVPSQPQNSTLRPGPAAPIALVPVFCGLLVAKSLVLSALLVWWGDIWWKTVMELRSLDTQKATCHLQQVTDLPWTSVSSPVEREILYHTVARTKISDDDDEHTL
modifications: homo sapiens
In the case of B1, the “Binding to HeLa cells” value in the assay with HeLa cells [7] was “bound well”. Also, the “Binding to mutant CHO cells lacking HSPG” value in assay [8] is recorded as “significantly reduced”. Further, the “Staining of EB-SP compared with EB” value in the assay with EB-SP was “same phenotype”.

B2: NKp46D2-Ig: truncated fusion protein: D2 of NKp46 with CD5 leader fused to Fc portion of human IgG1 (protein)
chain: MAWMLLLILIMVHPGSCALWVSQPPEIRTLEGSSAFLPCSFNASQGRLAIGSVTWFRDEVVPGKEVRNGTPEFRGRLAPLASSRFLHDHQAELHIRDVRGHDASIYVCRVEVLGLGVGTGNGTRLVVEKEHPQLGAGTVLLLRAGFYAVSFLSVAVGSTVYYQGKCLTWKGPRRQLPAVVPAPLPPPCGSSAHLLPPVPGG
modifications: homo sapiens
On to B2, for which the “Binding to HeLa cells” value in the assay with HeLa cells [7] is “bound well”. Further, in assay [8], the “Binding to mutant CHO cells lacking HSPG” value is given as “significantly reduced”. Also, the “Binding to IV-infected cells” value in the assay on IV-infected cells is “bind similarly”. The “Reduction of staining of EB-SP” value in the assay with EB-SP (FIG. 4C) worked out at 50%.
